Laboratory results: ChEMBL document CHEMBL6121041, “Design and synthesis of isatin derivative payloaded peptide-drug conjugate as tubulin inhibitor against colorectal cancer” (Eur J Med Chem, 2025)

How the values were obtained:
[1] = Cytotoxicity against HUVEC cells assessed as reduction in cell viability incubated for 48 hrs by MTT assay; format: toxicity, cell-based; conditions: human
[2] = Cytotoxicity against HK-2 cells assessed as reduction in cell viability incubated for 48 hrs by MTT assay; format: toxicity, cell-based; conditions: human
[3] = system: HCT-116; experiment: Antiproliferative activity against human HCT-116 cells assessed as reduction in cell viability incubated for 48 hrs by MTT assay; format: functional, cell-based; conditions: HCT-116, 48 h
[4] = system: 786-0; experiment: Antiproliferative activity against human 786-0 cells assessed as reduction in cell viability incubated for 48 hrs by MTT assay; format: functional, cell-based; conditions: 786-0, 48 h
[5] = system: HCC827; experiment: Antiproliferative activity against human HCC827 cells assessed as reduction in cell viability incubated for 48 hrs by MTT assay; format: functional, cell-based; conditions: HCC827, 48 h
[6] = system: K562; experiment: Antiproliferative activity against human K562 cells assessed as reduction in cell viability incubated for 48 hrs by MTT assay; format: functional, cell-based; conditions: K562, 48 h
[7] = system: MGC-803; experiment: Antiproliferative activity against human MGC-803 cells assessed as reduction in cell viability incubated for 48 hrs by MTT assay; format: functional, cell-based; conditions: MGC-803, 48 h
[8] = system: HepG2; experiment: Antiproliferative activity against human HepG2 cells assessed as reduction in cell viability incubated for 48 hrs by MTT assay; format: functional, cell-based; conditions: HepG2, 48 h

| IC50 [3] [nM] | IC50 [4] [µM] | IC50 [5] [µM] | IC50 [6] [nM] | IC50 [7] [µM] | IC50 [8] [µM] | SMILES | IC50 at 48 h [1] [µM] | IC50 at 48 h [2] [µM] |
| --- | --- | --- | --- | --- | --- | --- | --- | --- |
| 2230 | 9.02 | 1.34 | 1250 | 8.25 | 4.7 | CCN(CC)CCNC(=O)c1c(C)[nH]c(/C=C2\C(=O)Nc3ccc(F)cc32)c1C [SUNITINIB] | 7.7 | 6.88 |
| 18700 | 87.6 | 4.15 | > 100000 | 91.1 | > 100 | COc1ccc(CN2C(=O)C(=O)c3cc(-c4ccc(C(=O)O)cc4)ccc32)cc1 | 34.7 | 30.9 |
| > 100000 | > 100 | 13.7 | 89400 | > 100 | > 100 | COc1ccc(CN2C(=O)C(=O)c3cc(-c4ccc(OC)cc4)cc(N)c32)cc1 | > 100 | > 100 |
| 263 | 15.2 | 3.62 | 470 | 58.2 | > 100 | COc1ccc(CN2C(=O)C(=O)c3cc(-c4ccc(OC)cc4)cc([N+](=O)[O-])c32)cc1 | 10.6 | 1.21 |
| 349 | 33.3 | 24.2 | 770 | 27 | > 100 | COc1ccc(CN2C(=O)C(=O)c3cc(-c4ccc(CBr)cc4)ccc32)cc1 | 16 | 1.99 |
| 768 | 51.4 | 10.1 | 310 | 19 | 43 | COc1ccc(CN2C(=O)C(=O)c3cc(-c4ccc(OC)cc4)ccc32)cc1 | 27.2 | 10.5 |
| 786 | 40.4 | 34.7 | 810 | 29.2 | > 100 | COc1ccc(CN2C(=O)C(=O)c3cc(-c4ccc(CO)cc4)ccc32)cc1 | 18.8 | 12.6 |
